Assays:
[1] = system: adenosine uptake in HEK293 cells; assay: Adenosine uptake inhibitory activity in HEK293 cells ([3H]adenosine uptake); type: cell-based; conditions: for activity at 0.05 µM: 50 nmol/L compound, n=2; for activity at 0.5 µM: 500 nmol/L compound
Procedure: A test was conducted according to the method of Leung et al. [Biochemical Pharmacology, Vol. 70, pp. 355-362 (2005)]. HEK293 cells (ATCC, Registration No. CRL-1537) were subcultured in a Dulbecco's modified Eagle's medium (manufactured by Invitrogen Corporation) containing 10% of fatal calf serum in a CO2 incubator using a poly-L-lysine-coated 10-cm dish (manufactured by Asahi Techno Glass Corporation). The cultured cells were seeded in a poly-L-lysine-coated 24-well plate (manufactured by Asahi Techno Glass Corporation) and cultured until the cells become confluent. […] After incubation at room temperature for 15 minutes, 0.2 mL of a Na^+-free buffer containing 100 nmol/L of [^3H] adenosine (manufactured by GE Health Care Bioscience Corporation) and each compound at each of 50 nmol/L and 500 nmol/L was added to each well. After 1 minute, the reaction solution was removed with an aspirator, and the wells were washed twice with 0.5 mL of ice-cooled PBS (phosphate-buffered saline). Then, 0.5 mL of PBS containing 5% Triton X-100 was added to each well, and the cells were scraped with a scraper. The solution in each well was homogenized by passing through a 20 G injection needle ten times and transferred to a scintillation vial containing 4 mL of clear sol (manufactured by Nacalai Tesque Inc.). Further, the wells were washed with 0.5 mL of PBS containing 5% Triton X-100, and the washing solution was added to the same vial. After sufficient agitation, radioactivity was measured using a liquid scintillation counter (Aloka Co., Ltd., LSC-3500). A relative value to 100% of an uptake of a control was indicated by percentage.

[2] = system: restraint stress-induced defecation; assay: Action on restraint stress-induced defecation; type: in vivo, male Wistar rats; conditions: measured 1 hour after stress initiation, rats
Procedure: An experiment was carried out according to the method of Kishibayashi et al. [Japanese Journal of Pharmacology, Vol. 69, No. 4, pp. 495-502 (1993)]. In the experiment, male Wistar rats aged 6 to 7 weeks (supplied from Charles River Laboratories Japan, Inc.) were used. […] The rats were lightly anesthetized with diethyl ether, and the thoracic trunk and the forelimbs were wrapped with a tape to produce mild stress. One hour after stress initiation, the wet weight of fecal pellets was measured. Each drug solution was orally administered 1 hour before restraint stress. A test compound was suspended at a concentration of 2 mg/mL in an aqueous solution of 0.5 w/v % methyl cellulose 400 cP and orally administered at a volume of 5 mL/kg (at a dose of 10 mg/kg). In a control, an aqueous solution of 0.5 w/v % methyl cellulose 400 cP was administered. Ten rats were used in each group. […] YM060, a serotonin 5-HT3 receptor antagonist [The Journal of Pharmacology and Experimental Therapeutics, Vol. 259, No. 2, pp. 815-819 (1991), Astellas Pharma. Inc., online, internet (URL: […].com/jp/companry/news/2006/pdf/060131.pdf)], which is being applied as a therapeutic agent for irritable bowel syndrome, was administered at a dose of 0.1 mg/kg.

[3] = Homo sapiens, 1 min, [3H]adenosine uptake relative to 100% of control, HEK293 cells
[4] = 10 mg/kg p.o. 1 hour before restraint stress, n=10, control of each sub-table 1.06-1.71 g
[5] = 300 mg/kg p.o. 1 hour before restraint stress

SMILES	activity at 0.05 µM [1, 3] [%]	activity at 0.5 µM [1, 3] [%]	Wet weight of fecal pellets [2, 4] [g]	further results
O=C1c2sccc2CS(=O)(=O)c2cccc(OCc3ccccc3)c21 [Compound 6-2, 9-Benzyloxy-5,5-dioxo-4,10-dihydrothieno[3,2-c][1]benzothiepin-10-one]	94	73		
O=C(Nc1cccc2c1C(=O)c1sccc1CS2(=O)=O)c1ccco1 [Compound 1-8]	79	44	0.66 ± 0.12	
CCOC(=O)Nc1cccc2c1C(=O)c1sccc1CS2(=O)=O [Compound 1-6]	89	68	0.31 ± 0.06	
CC(O)(C(=O)Nc1ccc(F)c2c1C(=O)c1sccc1CS2(=O)=O)C(F)(F)F (stereo not shown) [Compound 3-1]	96	63	0.41 ± 0.16	
COC(=O)C(CC(C)C)Nc1cccc2c1C(=O)c1sccc1CS2(=O)=O (stereo not shown) [Compound 5-7, 5,5-Dioxo-9-{[1-(methoxycarbonyl)-3-methylbutyl]amino}-4,10-dihydrothieno[3,2-c][1]benzothiepin-10-one]	67	30		
O=C1c2sccc2CS(=O)(=O)c2cccc(NC(=O)C(O)C(F)(F)F)c21 (stereo not shown) [Compound 1-11, 5,5-Dioxo-9-(2-hydroxy-3,3,3-trifluoropropanoylamino)-4,10-dihydrothieno[3,2-c][1]benzothiepin-10-one]	82	46		
O=C1c2sccc2CS(=O)(=O)c2cccc(NCc3ccccc3)c21 [Compound 5-3, 9-Benzylamino-5,5-dioxo-4,10-dihydrothieno[3,2-c][1]benzothiepin-10-one]	63	30	0.41 ± 0.17	
Cn1cc(C(=O)[C@@H]2CCc3nc[nH]c3C2)c2ccccc21 [YM060, reference compound]				Wet weight of fecal pellets ([2]; 0.1 mg/kg 1 hour before restraint stress, control 1.24 ± 0.23 g): 0.43 ± 0.11 g
COc1ccccc1CNc1cccc2c1C(=O)c1sccc1CS2(=O)=O [Compound 5-4, 5,5-Dioxo-9-(2-methoxybenzylamino)-4,10-dihydrothieno[3,2-c][1]benzothiepin-10-one]	72	42		
COC(=O)C(Cc1ccccc1)Nc1cccc2c1C(=O)c1sccc1CS2(=O)=O (stereo not shown) [Compound 5-8, 5,5-Dioxo-9-{[1-(methoxycarbonyl)-2-phenylethyl]amino}-4,10-dihydrothieno[3,2-c][1]benzothiepin-10-one]	92	69		
COc1cc(C(=O)OCCCN2CCCN(CCCOC(=O)c3cc(OC)c(OC)c(OC)c3)CC2)cc(OC)c1OC [Dilazep, reference compound]				Wet weight of fecal pellets [2, 5]: 0.84 ± 0.17 g
NC(=O)C1CN(CCCCC(c2ccc(F)cc2)c2ccc(F)cc2)CCN1CC(=O)Nc1c(Cl)cc(N)cc1Cl (stereo not shown) [Draflazine, reference compound]				Wet weight of fecal pellets ([2]; 100 mg/kg p.o. 1 hour before restraint stress, control 1.06 ± 0.11 g): 0.43 ± 0.13 g
O=C1c2sccc2CS(=O)(=O)c2cccc(Nc3ccccc3)c21 [Compound 5-1, 5,5-Dioxo-9-phenylamino-4,10-dihydrothieno[3,2-c][1]benzothiepin-10-one]	91	60	0.36 ± 0.16	
CC(=O)C(C)(C)C(=O)Nc1cccc2c1C(=O)c1sccc1CS2(=O)=O [Compound 1-10, 5,5-Dioxo-9-(2,2-dimethyl-3-oxobutanoylamino)-4,0-dihydrothieno[3,2-c][1]benzothiepin-10-one]	94	63		
CCOc1cc2nc(N3CCOCC3)nc(N3CCC(n4c(=O)c5cc(C)ccc5n(C)c4=O)CC3)c2cc1OCC [KF24345, reference compound]			0.48 ± 0.14	
O=C1c2sccc2CS(=O)(=O)c2cccc(Nc3cc(Cl)ccc3O)c21 [Compound 5-2, 9-(5-Chloro-2-hydroxyphenylamino)-5,5-dioxo-4,10-dihydrothieno[3,2-c][1]benzothiepin-10-one]	80	44	0.46 ± 0.18	
OCCN(CCO)c1nc(N2CCCCC2)c2nc(N(CCO)CCO)nc(N3CCCCC3)c2n1 [Dipyridamole, reference compound]				Wet weight of fecal pellets [2, 5]: 0.59 ± 0.15 g
CCOC(=O)CNc1cccc2c1C(=O)c1sccc1CS2(=O)=O [Compound 5-5, 5,5-Dioxo-9-ethoxycarbonylmethylamino-4,10-dihydrothieno[3,2-c][1]benzothiepin-10-one]	98	68		
CC(O)(C(=O)Nc1ccc(Br)c2c1C(=O)c1sccc1CS2(=O)=O)C(F)(F)F (stereo not shown) [Compound 3-3, 6-Bromo-5,5-dioxo-9-(3,3,3-trifluoro-2-hydroxy-2-methylpropanoylamino)-4,10-dihydrothieno[3,2-c][1]benzothiepin-10-one]			0.81 ± 0.22	
CC(O)(C(=O)Nc1ccc(Cl)c2c1C(=O)c1sccc1CS2(=O)=O)C(F)(F)F (stereo not shown) [Compound 3-2]			0.53 ± 0.14	
CCOC(=O)C(C)Nc1cccc2c1C(=O)c1sccc1CS2(=O)=O (stereo not shown) [Compound 5-6, 5,5-Dioxo-9-[1-(ethoxycarbonyl)ethylamino]-4,10-dihydrothieno[3,2-c][1]benzothiepin-10-one]	80	50		
O=C(Nc1cccc2c1C(=O)c1sccc1CS2(=O)=O)c1cc(Cl)ccc1O [Compound 1-7]	74	35	0.59 ± 0.12	
O=C1c2sccc2CS(=O)(=O)c2cccc(SCc3ccccc3)c21 [Compound 6-1, 9-Benzylthio-5,5-dioxo-4,10-dihydrothieno[3,2-c][1]benzothiepin-10-one]	75	39		
O=[N+]([O-])c1ccc(CSc2ncnc3c2ncn3C2OC(CO)C(O)C2O)cc1 (stereo not shown) [Nitrobenzylthioinosine, S6-(4-nitrobenzyl)mercaptopurine riboside, reference compound]		4		adenosine uptake in HEK293 cells (in words) ([1]; 100 nmol/L, concentration at which only ENT-1 is inhibited): almost completely inhibited; activity at 0.1 µM ([1]; Homo sapiens, 1 min, 100 nmol/L compound, [3H]adenosine uptake relative to 100% of control, HEK293 cells): 8%
Cc1ccc(NC(=O)C(C)(O)C(F)(F)F)c2c1S(=O)(=O)Cc1ccsc1C2=O (stereo not shown) [Compound 3-4]	71	41	0.67 ± 0.19	
O=C(CC(O)(C(F)(F)F)C(F)(F)F)Nc1cccc2c1C(=O)c1sccc1CS2(=O)=O [Compound 1-2]	39	17	0.78 ± 0.25	
Cc1cc(C(=O)Nc2cccc3c2C(=O)c2sccc2CS3(=O)=O)[nH]n1 [Compound 1-9, 5,5-Dioxo-9-[(5-methylpyrazol-3-ylcarbonyl)amino]-4,10-dihydrothieno[3,2-c][1]benzothiepin-10-one]	62	26	0.39 ± 0.18	
CCC(O)(CC)C(=O)Nc1cccc2c1C(=O)c1sccc1CS2(=O)=O [Compound 1-4, 5,5-Dioxo-9-(2-ethyl-2-hydroxybutanoylamino)-4,10-dihydrothieno[3,2-c][1]benzothiepin-10-one]	73	34	0.44 ± 0.19	
CC(C)(C)C(=O)Nc1cccc2c1C(=O)c1sccc1CS2(=O)=O [Compound 1-5]	90	55	0.97 ± 0.16	

Reference: patent publication US20100267796A1, “THERAPEUTIC AGENT FOR IRRITABLE BOWEL SYNDROME” (KYOWA HAKKO KOGYO CO., LTD., priority 2006, published 2010)
